From ChEMBL document CHEMBL1136440, “Design and synthesis of novel RXR-selective modulators with improved pharmacological profile” (Bioorg Med Chem Lett, 2003)
“And” between values parts separate entries of the source, which are not always exact repeats. Identical values can stand only once.

Columns and labels:
[1] = Tmax value in IRC mice; format: ADME, organism-based; details: mouse, in vivo
[2] = Cmax value in IRC mice; format: ADME, organism-based; details: mouse, in vivo
[3] = Area under curve at 0-8 hr in IRC mice after peroral administration; format: ADME, organism-based; parameters: time < 8 hr, route oral; details: mouse, in vivo, po
[4] = molecular target: T1, Retinoic acid receptor RXR-alpha (Homo sapiens, UniProt P19793); assay: In vitro antagonist activity against RXR alpha in CV-1 cells; format: functional, cell-based, Cercopithecidae
T1 sequence (P19793 whole entry): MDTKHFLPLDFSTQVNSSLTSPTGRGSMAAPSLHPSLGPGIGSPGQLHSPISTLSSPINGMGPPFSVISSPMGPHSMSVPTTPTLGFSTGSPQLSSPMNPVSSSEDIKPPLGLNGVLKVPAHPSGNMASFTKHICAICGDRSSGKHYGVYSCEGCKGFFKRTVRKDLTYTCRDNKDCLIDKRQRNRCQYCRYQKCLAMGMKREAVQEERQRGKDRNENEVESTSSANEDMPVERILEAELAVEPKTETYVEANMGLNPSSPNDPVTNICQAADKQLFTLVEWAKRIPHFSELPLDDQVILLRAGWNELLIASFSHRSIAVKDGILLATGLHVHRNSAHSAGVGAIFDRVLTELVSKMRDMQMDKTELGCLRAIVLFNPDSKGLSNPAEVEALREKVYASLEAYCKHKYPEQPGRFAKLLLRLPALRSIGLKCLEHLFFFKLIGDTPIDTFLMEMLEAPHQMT

[5] = molecular target: T2, Retinoic acid receptor alpha (Homo sapiens) (UniProt P10276); assay: Agonist synergy against RAR alpha was tested along with 3 nM TTNPB; format: functional; details: Cercopithecidae
T2 sequence (whole entry): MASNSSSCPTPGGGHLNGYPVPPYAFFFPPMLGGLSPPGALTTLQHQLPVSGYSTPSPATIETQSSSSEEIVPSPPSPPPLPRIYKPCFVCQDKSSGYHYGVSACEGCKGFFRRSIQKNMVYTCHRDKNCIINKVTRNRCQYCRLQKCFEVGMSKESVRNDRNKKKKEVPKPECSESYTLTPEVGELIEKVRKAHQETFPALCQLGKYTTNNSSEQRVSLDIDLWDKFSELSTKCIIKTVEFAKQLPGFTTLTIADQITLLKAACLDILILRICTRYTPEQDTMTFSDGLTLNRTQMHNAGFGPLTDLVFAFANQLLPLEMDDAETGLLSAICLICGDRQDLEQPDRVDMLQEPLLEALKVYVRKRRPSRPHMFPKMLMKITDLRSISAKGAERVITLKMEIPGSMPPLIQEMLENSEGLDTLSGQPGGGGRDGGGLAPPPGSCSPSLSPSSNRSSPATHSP

[6] = molecular target: T3, Retinoic acid receptor beta (Homo sapiens, UniProt P10826); assay: Binding affinity against RAR beta receptor using [3H]ATRA as radioligand in CV-1 cells; format: cell-based, Cercopithecidae
T3 sequence (P10826 whole entry): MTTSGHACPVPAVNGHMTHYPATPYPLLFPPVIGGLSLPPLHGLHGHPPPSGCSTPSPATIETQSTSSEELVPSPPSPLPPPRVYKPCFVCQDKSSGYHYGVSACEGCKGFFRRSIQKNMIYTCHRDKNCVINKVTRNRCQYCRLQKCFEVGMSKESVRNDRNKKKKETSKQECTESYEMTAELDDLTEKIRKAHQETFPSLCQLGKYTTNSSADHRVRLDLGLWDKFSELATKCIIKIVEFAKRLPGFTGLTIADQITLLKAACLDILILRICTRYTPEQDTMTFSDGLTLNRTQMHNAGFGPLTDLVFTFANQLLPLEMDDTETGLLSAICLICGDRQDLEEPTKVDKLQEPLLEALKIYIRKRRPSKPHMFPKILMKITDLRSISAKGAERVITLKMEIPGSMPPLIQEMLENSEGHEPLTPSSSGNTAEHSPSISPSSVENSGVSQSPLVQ

[7] = molecular target: T4, Retinoic acid receptor RXR-beta (Homo sapiens, UniProt P28702); assay: Displacement of [3H]9-cis-RA from RXR beta receptor in CV-1 cells; format: cell-based, Cercopithecidae
T4 sequence (P28702 whole entry): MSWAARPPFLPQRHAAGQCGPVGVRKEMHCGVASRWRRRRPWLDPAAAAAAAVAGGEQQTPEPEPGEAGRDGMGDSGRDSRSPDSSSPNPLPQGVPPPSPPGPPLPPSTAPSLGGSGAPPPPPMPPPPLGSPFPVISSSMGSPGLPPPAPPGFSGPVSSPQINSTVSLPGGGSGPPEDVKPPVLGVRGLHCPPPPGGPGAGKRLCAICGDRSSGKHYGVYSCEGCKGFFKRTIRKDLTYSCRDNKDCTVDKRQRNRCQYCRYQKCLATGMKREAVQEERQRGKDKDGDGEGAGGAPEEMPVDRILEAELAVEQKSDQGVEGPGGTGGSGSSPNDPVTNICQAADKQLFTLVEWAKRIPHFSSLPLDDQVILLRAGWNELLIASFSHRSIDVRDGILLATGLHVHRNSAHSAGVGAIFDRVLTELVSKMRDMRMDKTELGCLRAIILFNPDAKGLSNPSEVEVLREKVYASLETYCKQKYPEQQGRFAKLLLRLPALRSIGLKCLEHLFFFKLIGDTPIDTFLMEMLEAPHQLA

[8] = molecular target: T5, Retinoic acid receptor alpha (Homo sapiens, UniProt P10276); assay: Binding affinity against RAR alpha receptor using [3H]ATRA as radioligand in CV-1 cells; format: cell-based, Cercopithecidae
T5 sequence (P10276 whole entry): T2 sequence (whole entry)

[9] = molecular target: T6, Retinoic acid receptor RXR-gamma (Homo sapiens, UniProt P48443); assay: Binding affinity against RXR gamma receptor using [3H]9-cis-RA as radioligand in CV-1 cells; format: cell-based, Cercopithecidae
T6 sequence (P48443 whole entry): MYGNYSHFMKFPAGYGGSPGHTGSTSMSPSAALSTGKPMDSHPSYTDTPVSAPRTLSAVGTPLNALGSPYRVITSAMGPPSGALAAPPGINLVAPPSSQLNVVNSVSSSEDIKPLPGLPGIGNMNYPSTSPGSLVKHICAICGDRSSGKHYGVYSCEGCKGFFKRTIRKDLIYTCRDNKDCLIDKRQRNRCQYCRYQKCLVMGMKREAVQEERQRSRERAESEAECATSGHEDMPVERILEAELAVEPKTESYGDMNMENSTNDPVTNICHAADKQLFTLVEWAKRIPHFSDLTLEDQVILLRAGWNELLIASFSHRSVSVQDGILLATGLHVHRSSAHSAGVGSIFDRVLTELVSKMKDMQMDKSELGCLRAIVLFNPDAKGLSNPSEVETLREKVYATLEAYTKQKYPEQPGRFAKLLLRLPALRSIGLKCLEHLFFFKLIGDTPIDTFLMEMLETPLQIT

[10] = molecular target: T7, Retinoic acid receptor gamma (Homo sapiens, UniProt P13631); assay: Binding affinity against RAR gamma receptor using [3H]ATRA as radioligand in CV-1 cells; format: cell-based, Cercopithecidae
T7 sequence (P13631 whole entry): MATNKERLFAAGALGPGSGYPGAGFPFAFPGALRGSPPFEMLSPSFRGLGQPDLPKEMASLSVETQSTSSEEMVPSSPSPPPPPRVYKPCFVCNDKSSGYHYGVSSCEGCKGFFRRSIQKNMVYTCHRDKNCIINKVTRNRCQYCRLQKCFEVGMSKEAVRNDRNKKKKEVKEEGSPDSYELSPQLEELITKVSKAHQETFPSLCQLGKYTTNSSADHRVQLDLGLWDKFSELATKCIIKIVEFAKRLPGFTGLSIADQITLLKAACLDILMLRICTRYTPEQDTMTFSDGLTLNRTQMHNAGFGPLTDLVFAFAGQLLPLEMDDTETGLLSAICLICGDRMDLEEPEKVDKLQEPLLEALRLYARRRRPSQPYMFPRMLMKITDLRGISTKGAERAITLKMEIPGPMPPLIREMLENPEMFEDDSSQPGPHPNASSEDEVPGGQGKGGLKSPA

[11] = molecular target: T8, Peroxisome proliferator-activated receptor gamma (Homo sapiens, UniProt P37231)
T8 sequence (P37231 whole entry): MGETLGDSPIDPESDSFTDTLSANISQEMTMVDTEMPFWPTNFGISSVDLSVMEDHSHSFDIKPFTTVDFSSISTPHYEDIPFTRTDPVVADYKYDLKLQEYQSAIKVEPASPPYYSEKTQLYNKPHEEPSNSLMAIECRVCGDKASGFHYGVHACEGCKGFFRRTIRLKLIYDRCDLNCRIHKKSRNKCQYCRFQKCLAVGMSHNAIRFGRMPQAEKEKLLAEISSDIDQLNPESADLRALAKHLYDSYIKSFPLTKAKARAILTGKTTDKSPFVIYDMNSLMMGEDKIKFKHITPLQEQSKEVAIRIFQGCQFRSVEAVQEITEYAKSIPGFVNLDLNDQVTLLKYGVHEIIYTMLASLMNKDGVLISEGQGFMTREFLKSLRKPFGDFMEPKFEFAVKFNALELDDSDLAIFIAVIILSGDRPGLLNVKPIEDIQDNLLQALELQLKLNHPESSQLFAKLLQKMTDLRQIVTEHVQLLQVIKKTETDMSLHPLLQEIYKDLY
Description: In vitro agonistic activity against PPAR gamma along with 100 nM BRL-49653

[12] = molecular target: T8, Peroxisome proliferator-activated receptor gamma; remark: listed apart in the source
Description: In vitro agonist efficacy against PPAR gamma along with 100 nM BRL-49653

[13] = molecular target: T7, Retinoic acid receptor gamma; assay: Displacement of [3H]ATRA from RAR gamma receptor in CV-1 cells; […]; format: cell-based, Cercopithecidae
[14] = molecular target: T1, Retinoic acid receptor RXR-alpha; assay: biochemical
Description: Binding affinity against RXR alpha receptor using [3H]9-cis-RA as radioligand in CV-1 cells

[15] = molecular target: T7, Retinoic acid receptor gamma; assay: Displacement of [3H]ATRA from RAR gamma receptor expressed in CV-1 cells; format: cell-based, Cercopithecidae

SMILES: CC(/C=C/C(F)=C(/C)c1cc(C(C)(C)C)cc(C(C)(C)C)c1OCC(F)F)=C\C(=O)O
- Tmax [1]: 3 h
- Cmax [2]: 3690 ng/mL and 8.41 µM
- AUC(0-t) at 8 h [3]: 17700 ng·h/mL
- IC50 [4]: 0.0068 µM
- Synergy [5]: 1.8 nM
- Ki [6]: 5.68 µM
- Ki [7]: 0.0115 µM
- Ki [8]: 8.3 µM
- Ki [9]: 0.0132 µM
- Ki [10]: > 10 µM
- EC50 [11]: 0.0064 µM
- EC50 [12]: 0.063 µM

SMILES: C/C(=C/C=C/C(C)=C/C(=O)O)c1cc(-c2ccco2)cc(C(C)C)c1OCC(F)F
- IC50 [4]: 0.0036 µM
- Synergy [5]: 1.2 nM
- Ki [13]: > 10 µM
- EC50 [11]: 0.0074 µM
- EC50 [12]: 0.037 µM
- Ki [14]: 0.003 µM

SMILES: CCCOc1c(\C(C)=C/C=C/C(C)=C/C(=O)O)cc(C(C)C)cc1C(F)(F)C(F)(F)F
- IC50 [4]: 0.0107 µM
- Synergy [5]: 9.4 nM
- Ki [6]: > 10 µM
- Ki [15]: > 10 µM
- Ki [7]: 0.0099 µM
- Ki [8]: > 10 µM
- Ki [9]: 0.0236 µM
- EC50 [11]: 0.0151 µM
- EC50 [12]: 0.029 µM
- Ki [14]: 0.0858 µM
